# Experimental data published in US11208412B2 (DAEGU-GYEONGBUK MEDICAL INNOVATION FOUNDATION, priority 2017, dated 2021).
# Legend:
# Test in all cases: Kinase selectivity, DiscoverX scanMAX Kinase assay panel (% control)
# Format in all cases: binding
# [1] = molecular target: T1, kinases of the scanMAX Kinase assay panel (Homo sapiens, UniProt O15197); conditions: EPHB6; 1 uM
# T1 construct: purchased DiscoverX Co. (contract measurement) scanMAX Kinase assay panel
# T1 sequence (O15197 32-1021): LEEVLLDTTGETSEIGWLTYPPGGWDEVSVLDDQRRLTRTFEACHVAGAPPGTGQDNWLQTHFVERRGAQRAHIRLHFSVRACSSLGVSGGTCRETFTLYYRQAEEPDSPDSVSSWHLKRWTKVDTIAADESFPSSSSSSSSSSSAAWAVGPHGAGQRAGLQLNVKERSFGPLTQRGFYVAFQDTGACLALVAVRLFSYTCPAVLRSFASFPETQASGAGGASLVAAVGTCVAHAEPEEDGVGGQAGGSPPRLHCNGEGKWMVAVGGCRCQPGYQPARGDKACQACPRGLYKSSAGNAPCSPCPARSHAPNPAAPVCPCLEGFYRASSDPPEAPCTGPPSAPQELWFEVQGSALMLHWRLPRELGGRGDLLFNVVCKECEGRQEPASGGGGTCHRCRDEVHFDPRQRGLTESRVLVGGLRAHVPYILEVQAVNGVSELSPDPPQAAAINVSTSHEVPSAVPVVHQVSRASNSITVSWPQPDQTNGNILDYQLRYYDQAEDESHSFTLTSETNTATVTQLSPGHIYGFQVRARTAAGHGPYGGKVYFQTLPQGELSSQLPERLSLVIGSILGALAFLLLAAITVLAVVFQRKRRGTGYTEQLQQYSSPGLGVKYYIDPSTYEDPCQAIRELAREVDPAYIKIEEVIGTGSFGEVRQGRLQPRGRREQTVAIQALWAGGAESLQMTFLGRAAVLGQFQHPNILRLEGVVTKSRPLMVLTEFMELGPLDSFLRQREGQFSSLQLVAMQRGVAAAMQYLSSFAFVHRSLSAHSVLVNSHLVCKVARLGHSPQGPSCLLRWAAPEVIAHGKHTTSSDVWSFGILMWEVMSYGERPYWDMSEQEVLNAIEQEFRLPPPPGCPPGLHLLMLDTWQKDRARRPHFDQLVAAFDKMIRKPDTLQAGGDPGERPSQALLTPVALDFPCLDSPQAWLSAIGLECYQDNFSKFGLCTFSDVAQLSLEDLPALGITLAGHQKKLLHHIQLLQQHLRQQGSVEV
# Procedure, shortened: (§1)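 Compounds were tested at 1 uM (in DMSO) against each panel kinase. % control was calculated as (compound − positive control)/(negative control − positive control)×100, where the positive control gives 0% and DMSO gives 100%. Activity toward a kinase was called at % control <35%.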
# [2] = molecular target: T2, kinases of the scanMAX Kinase assay panel (Homo sapiens, UniProt Q8TDC3); conditions: BRSK1; 1 uM
# T2 construct: purchased DiscoverX Co. (contract measurement) scanMAX Kinase assay panel
# T2 sequence (Q8TDC3 1-778): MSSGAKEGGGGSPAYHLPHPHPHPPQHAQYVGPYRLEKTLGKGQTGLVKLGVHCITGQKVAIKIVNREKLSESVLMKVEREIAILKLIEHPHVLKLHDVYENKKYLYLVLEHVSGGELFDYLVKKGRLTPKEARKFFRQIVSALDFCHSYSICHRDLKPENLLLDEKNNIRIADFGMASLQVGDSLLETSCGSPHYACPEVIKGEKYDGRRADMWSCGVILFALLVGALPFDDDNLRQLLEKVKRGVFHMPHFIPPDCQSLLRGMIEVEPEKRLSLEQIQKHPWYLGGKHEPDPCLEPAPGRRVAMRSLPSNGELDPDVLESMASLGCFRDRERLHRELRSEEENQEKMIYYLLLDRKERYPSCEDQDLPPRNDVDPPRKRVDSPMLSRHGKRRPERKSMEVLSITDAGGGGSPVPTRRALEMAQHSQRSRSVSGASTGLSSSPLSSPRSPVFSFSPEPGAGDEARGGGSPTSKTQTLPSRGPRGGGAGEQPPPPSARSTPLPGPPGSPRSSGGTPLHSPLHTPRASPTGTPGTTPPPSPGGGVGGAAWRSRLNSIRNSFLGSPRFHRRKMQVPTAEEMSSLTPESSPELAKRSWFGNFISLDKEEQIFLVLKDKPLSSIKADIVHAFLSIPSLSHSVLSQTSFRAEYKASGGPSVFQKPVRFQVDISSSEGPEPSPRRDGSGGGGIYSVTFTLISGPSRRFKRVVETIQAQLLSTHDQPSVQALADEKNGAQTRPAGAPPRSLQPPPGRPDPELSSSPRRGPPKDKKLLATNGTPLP
# Procedure, shortened: as §1
# [3] = molecular target: T3, kinases of the scanMAX Kinase assay panel (Homo sapiens, UniProt Q96NX5); conditions: CAMK1G; 1 uM
# T3 construct: purchased DiscoverX Co. (contract measurement) scanMAX Kinase assay panel
# T3 sequence (Q96NX5 whole entry): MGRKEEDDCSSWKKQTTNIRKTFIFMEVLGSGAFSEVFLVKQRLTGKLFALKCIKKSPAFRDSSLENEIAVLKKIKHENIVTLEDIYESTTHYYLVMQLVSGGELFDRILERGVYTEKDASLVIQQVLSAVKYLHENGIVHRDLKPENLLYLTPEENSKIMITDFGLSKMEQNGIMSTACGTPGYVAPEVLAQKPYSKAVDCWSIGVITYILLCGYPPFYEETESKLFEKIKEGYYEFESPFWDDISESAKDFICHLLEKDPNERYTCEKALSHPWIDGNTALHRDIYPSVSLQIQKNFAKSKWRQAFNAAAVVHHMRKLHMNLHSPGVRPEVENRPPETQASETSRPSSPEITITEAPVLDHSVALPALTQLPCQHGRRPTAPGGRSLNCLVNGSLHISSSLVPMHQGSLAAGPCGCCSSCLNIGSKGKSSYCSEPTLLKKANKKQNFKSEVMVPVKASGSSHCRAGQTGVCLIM
# Procedure, shortened: as §1
# [4] = molecular target: T4, kinases of the scanMAX Kinase assay panel (Homo sapiens, UniProt Q99755); conditions: PIP5K1A; 1 uM
# T4 construct: purchased DiscoverX Co. (contract measurement) scanMAX Kinase assay panel
# T4 sequence (Q99755 whole entry): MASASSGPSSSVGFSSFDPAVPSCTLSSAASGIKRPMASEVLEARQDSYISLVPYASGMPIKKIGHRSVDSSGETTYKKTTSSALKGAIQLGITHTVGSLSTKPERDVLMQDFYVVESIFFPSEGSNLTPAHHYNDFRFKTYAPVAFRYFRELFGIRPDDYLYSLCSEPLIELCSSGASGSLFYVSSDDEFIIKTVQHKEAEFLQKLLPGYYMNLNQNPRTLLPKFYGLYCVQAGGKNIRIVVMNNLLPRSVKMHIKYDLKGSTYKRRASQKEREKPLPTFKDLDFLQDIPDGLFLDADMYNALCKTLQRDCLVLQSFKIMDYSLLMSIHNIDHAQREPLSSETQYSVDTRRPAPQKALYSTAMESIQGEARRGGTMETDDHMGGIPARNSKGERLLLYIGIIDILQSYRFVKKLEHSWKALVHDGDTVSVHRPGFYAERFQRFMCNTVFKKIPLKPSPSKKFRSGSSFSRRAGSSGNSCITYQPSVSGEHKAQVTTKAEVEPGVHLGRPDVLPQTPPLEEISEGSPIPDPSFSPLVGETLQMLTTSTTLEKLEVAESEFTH
# Procedure, shortened: as §1
# [5] = molecular target: T5, kinases of the scanMAX Kinase assay panel (Homo sapiens, UniProt Q9H2X6); conditions: HIPK2; 1 uM
# T5 construct: purchased DiscoverX Co. (contract measurement) scanMAX Kinase assay panel
# T5 sequence (Q9H2X6 whole entry): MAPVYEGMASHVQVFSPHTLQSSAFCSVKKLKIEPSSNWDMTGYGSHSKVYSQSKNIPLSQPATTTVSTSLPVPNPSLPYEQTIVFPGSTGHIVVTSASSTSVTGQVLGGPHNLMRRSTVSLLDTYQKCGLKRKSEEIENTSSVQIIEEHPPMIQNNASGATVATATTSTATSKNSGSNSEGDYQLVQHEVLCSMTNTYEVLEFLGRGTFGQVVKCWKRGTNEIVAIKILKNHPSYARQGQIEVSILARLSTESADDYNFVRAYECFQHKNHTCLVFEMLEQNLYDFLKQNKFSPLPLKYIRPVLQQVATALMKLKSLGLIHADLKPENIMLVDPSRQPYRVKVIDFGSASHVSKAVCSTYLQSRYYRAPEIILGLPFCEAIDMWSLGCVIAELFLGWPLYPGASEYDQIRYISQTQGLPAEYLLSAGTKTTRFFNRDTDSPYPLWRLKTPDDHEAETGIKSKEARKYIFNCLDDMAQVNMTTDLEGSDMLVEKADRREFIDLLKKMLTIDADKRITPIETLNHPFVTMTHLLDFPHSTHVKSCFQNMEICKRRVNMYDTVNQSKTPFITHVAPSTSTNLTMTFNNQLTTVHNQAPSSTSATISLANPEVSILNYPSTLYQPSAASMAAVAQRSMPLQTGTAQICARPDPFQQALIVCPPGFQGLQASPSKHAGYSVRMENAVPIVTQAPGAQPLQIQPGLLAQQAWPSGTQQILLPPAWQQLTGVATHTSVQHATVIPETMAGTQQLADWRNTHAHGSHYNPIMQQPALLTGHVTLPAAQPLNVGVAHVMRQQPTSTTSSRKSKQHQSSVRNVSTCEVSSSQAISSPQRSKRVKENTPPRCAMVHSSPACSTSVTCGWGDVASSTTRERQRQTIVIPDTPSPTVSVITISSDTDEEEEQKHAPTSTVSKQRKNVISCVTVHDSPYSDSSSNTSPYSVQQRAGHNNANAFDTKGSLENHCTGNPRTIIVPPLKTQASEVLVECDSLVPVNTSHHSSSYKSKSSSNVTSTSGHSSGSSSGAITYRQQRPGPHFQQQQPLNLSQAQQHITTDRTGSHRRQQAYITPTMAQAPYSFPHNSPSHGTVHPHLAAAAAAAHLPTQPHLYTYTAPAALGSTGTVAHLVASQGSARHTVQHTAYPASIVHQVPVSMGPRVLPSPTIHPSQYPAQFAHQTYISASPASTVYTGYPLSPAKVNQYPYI
# Procedure, shortened: as §1
# [6] = molecular target: T6, kinases of the scanMAX Kinase assay panel (Homo sapiens, UniProt Q9Y616); conditions: IRAK3; 1 uM
# T6 construct: purchased DiscoverX Co. (contract measurement) scanMAX Kinase assay panel
# T6 sequence (Q9Y616 1-596): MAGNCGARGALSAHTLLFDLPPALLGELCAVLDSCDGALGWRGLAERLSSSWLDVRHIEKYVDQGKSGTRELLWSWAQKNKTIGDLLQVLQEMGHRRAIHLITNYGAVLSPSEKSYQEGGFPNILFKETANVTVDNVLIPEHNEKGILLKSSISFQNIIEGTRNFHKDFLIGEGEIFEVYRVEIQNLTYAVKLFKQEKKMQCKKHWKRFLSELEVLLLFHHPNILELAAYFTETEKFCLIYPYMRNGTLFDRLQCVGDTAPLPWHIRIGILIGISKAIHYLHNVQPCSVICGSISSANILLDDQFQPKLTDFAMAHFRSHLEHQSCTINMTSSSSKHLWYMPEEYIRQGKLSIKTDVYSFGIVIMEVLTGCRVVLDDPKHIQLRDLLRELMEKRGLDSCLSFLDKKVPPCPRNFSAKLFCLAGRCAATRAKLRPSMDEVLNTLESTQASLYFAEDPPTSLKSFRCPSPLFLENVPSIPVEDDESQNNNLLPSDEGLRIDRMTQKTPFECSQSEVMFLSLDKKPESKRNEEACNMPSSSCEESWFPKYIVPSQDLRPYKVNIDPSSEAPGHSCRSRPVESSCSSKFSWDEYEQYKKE
# Procedure, shortened: as §1
SMILES,remaining binding at 1 µM [1],remaining binding at 1 µM [2],remaining binding at 1 µM [3],remaining binding at 1 µM [4],remaining binding at 1 µM [5],remaining binding at 1 µM [6]
"CCNc1nc(Nc2ccc(C(=O)N3CCC(N4CCOCC4)CC3)cc2OC)nc2[nH]cc(C(F)(F)F)c12 [Example 104, (4-((4-(ethylamino)-5-(trifluoromethyl)-7H-pyrrolo[2,3-d]pyrimidine-2-yl)amino)-3-methoxyphenyl)(4-morpholinopiperidine-1-yl)methanone]",95%,100%,94%,100%,14%,26%
"CNc1nc(Nc2ccc(C(=O)N3CCOCC3)cc2OC)nc2[nH]cc(C#N)c12 [Example 1, 2-((2-methoxy-4-(morpholine-4-carbonyl)phenyl)amino)-4-(methylamino)-7H-pyrrolo[2,3-d]pyrimidine-5-carbonitrile]",84%,97%,74%,99%,47%,90%
"CC1(Nc2nc(Nc3cnn([C@H]4CCN(C5COC5)C[C@@H]4F)c3Cl)nc3[nH]cc(C#N)c23)CC1 [Example 52, 2-((5-chloro-1-((3S,4S)-3-fluoro-1-(oxetane-3-yl)piperidine-4-yl)-1H-pyrazole-4-yl)amino)((1-methylcyclopropyl)amino)-7H-pyrrolo[2,3-d]pyrimidine-5-carbonitrile]",3.7%,96%,34%,2.5%,13%,3.9%
